How the values were obtained:
[1] = tested on: Panc-1 cell derived from human pancreatic cancer; experiment: MTT proliferation of Panc-1 cells; format: cell-based; settings: Panc-1, culture 5 days
Description: (§1) The culture in the absence of COM-JP and in the presence of COM-JP with different concentrations in the culture medium of each cancer cell was continued for 5 days. Proliferation activity of the cell on each elapsed day was measured by a MTT method.

[2] = tested on: KO99-RJ cells; experiment: Cell death (PI staining) of KO99-RJ cells; format: cell-based, murine; settings: 48 h
[3] = tested on: 44As3-11 cell derived from human scirrhous stomach cancer; experiment: MTT proliferation of 44As3-11 cells; format: cell-based; settings: 44As3-11, culture 5 days
Description: as §1

[4] = tested on: KO99-S cells; experiment: Cell death (PI staining) of parental KO99-S cells; format: cell-based, murine; settings: 48 h
[5] = tested on: freshly isolated tPTEN−/− tumor cells; experiment: WST-1 cell viability of freshly isolated primary tPTEN−/− tumor cells; format: cell-based, murine; settings: concentration dependent manner
Description: (§2) Two different assays were employed: i) In a 96-well plate format, cells (4.0±0.1×10^4 per well; 100 μL) were incubated with effectors (48 h, 37° C.; n=4 per experiment) and then WST-1 reagent (10 μL; Roche Diagnostics) added to each well of 96-well plates, incubated, and the formazan production was measured at 490 nm; and ii) cells (2.0±0.1×10^4 per well; 100 μL) were incubated with effectors (48 h, 37° C.; n=4 per experiment) and then bromodeoxyuridine reagent (10 μL/well; Roche Diagnostics) was added to each well and incubated (8 h, 37° C.). The cells were then fixed, denatured and incubated with anti-BrdU-conjugated with peroxidase (POD) antibody (100 μL/well). Colorimetric substrate (TMB: tetramethyl-benzidine; 100 μL/well) was added and BrdU incorporation quantified via optical density measurement (450 nm) which corresponds to DNA synthesis and proliferating cells.

[6] = tested on: normal resting or activated human PBL cells; experiment: Cell death analysis of resting or activated human PBL; format: cell-based
[7] = tested on: KO99L cells; experiment: BrdU incorporation Elisa (proliferation) on KO99L cells; format: cell-based, murine; settings: 10.0 μM, after 48 h
Description: as §2

[8] = tested on: KO99L-LUC cells (tPTEN−/− tumor); experiment: In vivo growth of subcutaneous KO99L-LUC tumors in nude mice (volume, bioluminescence, immunohistochemistry)
Description: All mice in each experimental group were subcutaneous injected with 99KOL-LUC T-lymphoma cells (200 μL; 5.0±0.1×10^6) stably expressing a reporter luciferase gene. After two days post injection, mice were intraperitoneally administered COMPOUND-JP (50 mg/kg/day/5 days a week) which had been prepared by dissolving drug powder and mixing into saline (NaCl 0.9%). Body weights and tumor volumes were measured every five days. Tumor volumes were calculated according to the mathematical formula: V=(L*W^2)/2 (L:Length; W:Width). To conduct the bioluminescence imaging, mice received an intraperitoneal injection (150 μL, 30 mg/mL) of D-luciferin (Caliper Life Science) and were anesthetized via inhaled isoflurane (2.0%). Bioluminescence signals were monitored using the Photon imager (Biospace Lab) equipped with a highly sensitive cooled CCD camera; all images were collected 10 min post D-luciferin injection. Data were analyzed using total photon flux emission (photons/second) focused on the regions of interest (ROI) enveloping the tumor region.
Sections (4 μm) in paraffin blocks of dissected tumors were labeled with a primary rabbit phospho-S6RP antibody (#4858, Cell Signaling Technology). A second, anti-rabbit antibody conjugated with peroxidase (HRP) (SignalStain®, #8114, Cell Signaling Technology) was added to the sections before revelation with diaminobenzidine (DAB) as recommended by the manufacturer. For necrosis evaluation, sections were stained with hematoxylin/eosin/safran (HES). The images were analyzed and necrosis areas quantified using the ImageJ software (NIH).

[9] = tested on: Jurkat T-ALL line; experiment: Cell proliferation of Jurkat human T-ALL cells; format: cell-based
Description: as §2

[10] = tested on: normal murine thymocytes; experiment: WST-1 cell viability of normal thymocytes; format: cell-based
Description: as §2

[11] = tested on: KO99L cells; experiment: Mitochondrial trans-membrane potential (TMRE staining), KO99L cells; format: cell-based, murine
Description: Mitochondrial trans-membrane potential (ψm) changes as a function of apoptotic events were measured using Tetra Methyl Rhodamine Ethyl Ester Perchlorate assay (TMRE; Molecular Probes). […] Thereafter, the cells were washed twice with PBS and then stained with DAPI (Sigma-Aldrich, 1.0 μg/mL) and examined via a MACSQuant Analyser (Miltenyi Biotech) and the data evaluated via FlowJo software.

[12] = tested on: Unfolded Protein Response components; experiment: Western blot of ISR/UPR components, KO99L cells; format: cell-based, murine; settings: 10.0 μM
Description: (§3) Cell extracts were prepared using a cell lysis buffer (50 mM HEPES, pH 7.4, 150 mM NaCl, 20 mM EDTA, 100 mM NaF, 10 mM Na3VO4, 0.5% nonyl phenoxypolyethoxylethanol (NP40) supplemented with a cocktail of protease inhibitors. After SDS-PAGE separation and transfer to nitrocellulose immunoblotting was performed using the following antibodies against: Akt (Cell Signaling Technologies, #9272), CHOP (#2895), cleaved caspase 3 (#9664), c-Myc (#9402), eIF2a (#9721), 4EBP1 (#9644), LC3A/B (#12741), PARP (#9542), pJnk (T183/Y185) (#9251), pSer235-236-S6RP (#4856), pSer473-Akt (#9271), pSer65-4EBP1 (#9451) and S6RP (#2217); Bax (Sigma-Aldrich, B8429); PUMA (Abcam, ab54288); Bak (Millipore, 06536); ATF4 (Santa Cruz Biotechnologies, sc200), GADD34 (sc8327), Hsp60 (sc-1722), Hsp90 (sc-13119) and XBP1 (sc-7160); ATF6 (Imgenex, IMG-273).

[13] = tested on: normal cord blood mononuclear cells; experiment: Viability of normal human cord blood mononuclear cells (DAPI, Facs); format: cell-based; settings: 5.0 and 10.0 μM, 48 h
[14] = tested on: CHOP; experiment: Western blot of CHOP protein levels, KO99L cells; format: cell-based, murine
Description: as §3

[15] = tested on: HT-29 colon cancer cells; settings: Reference 43; cited from earlier work
[16] = tested on: LC3; experiment: Western blot of LC3 processing (autophagy), KO99L cells; format: cell-based, murine; settings: 10.0 μM
Description: as §3

[17] = tested on: Jurkat T-ALL line; experiment: Cell viability of Jurkat human T-ALL cells; format: cell-based
Description: as §2

Nc1cc(COc2c(Cl)cc(C[C@H](N)C(=O)O)cc2Cl)c2oc(-c3ccccc3)nc2c1 [COMPOUND-JP, O-(5-amino-2-phenylbenzoxazole-7-yl)methyl-3,5-dichloro-L-tyrosine]
proliferation activity [1]: dose-dependent decrease | cell death [2]: far less efficient | proliferation activity [3]: dose-dependent decrease | cell death [4]: concentration dependent cell death | cell viability in freshly isolated tPTEN−/− tumor cells [5]: influenced cell viability | cell death [6]: did not induce cell death | diminished cell cycling (proliferation) [7]: 75% | decrease of mean tumor volume ([8]; 50 mg/kg/day, day 18, vs vehicle treated group, p<0.05): 45% | decrease of tumor luminescence ([8]; 50 mg/kg/day, p<0.05): 59% | necrotic response within the tumors ([8]; treated mice, untreated 4.6+/−0.5%): 10.5+/−0.5% | pS6RP staining in tumors ([8]; tumors from treated mice, 50 mg/kg/day): dramatically decreased | proliferation [9]: alter | toxicity in normal murine thymocytes [10]: non-toxic | Mitonchondrial Outer Membrane Permeabilization (MOMP) ([11]; 5.0 and 10.0 μM): cause MOMP | mitochondrial depolarization ([11]; highest concentration tested (20.0 μM), 48 hr): 70% | GADD34 [12]: expression | full length XBP1 [12]: gradually disappeared | p38 stress pathway ([12]; 2.0 h): strongly activated | ATF4 ([12]; 6.0 h): induction | ATF6 ([12]; 18.0 h): induction | eIF2 phosphorylation ([12]; 24 h): De-phosphorylation | normal cord blood mononuclear cells (living cells) [13]: did not significantly alter | COMPOUND-JP mediated CHOP induction upon EAA supplementation ([14]; 10 μM, complete medium plus EAA): prevented CHOP induction | CHOP expression, time course ([14]; FIG. 5A, COMPOUND-JP 10.0 μM, L-Asp, Erw 2.5 units/ml, 2.0-24 h): rapidly induced CHOP expression | CHOP induction ([14]; FIG. 5B, COMPOUND-JP 5.0 and 10.0 μM, L-Asp 2.5 units/ml, rapamycin 10.0 nM, MK-2206 10.0 μM, KU0063794 10.0 μM): profound and COMPOUND-JP dose dependent induction | growth of HT-29 colon cancer cells transplanted in nude mice [15]: reduce the growth | LC3-II accumulation [16]: stimulated LC3-II accumulation | cell survival [17]: alter cell survival
